As a reminder, the IC50 is the midpoint of a concentration-inhibition curve. In general, inhibition refers to the drop in the measured response relative to a control, in per cent. Usually GI50 stands for the concentration at which growth is held to half of that of the control. The low end stands for more potent growth inhibition, the high end for less potent growth inhibition. Usually half-life stands for how long it takes for the measured level to halve. A higher half-life goes with slow decline. As usually defined, the viability is a read-out of living cells in per cent, often relative to untreated cells.

Experimental findings from patent US20250248979A1, “NOVEL GPX4 INHIBITORS AND USES THEREOF” (THE TRUSTEES OF COLUMBIA UNIVERSITY IN THE CITY OF NEW YORK, priority 2022, published 2025) are described below.

Entries after “also recorded” stand apart in the source; their conditions may differ. Read-outs that look alike come from different tables or passages of the source. A value given as a limit tells only on which side of the number the result lay.

The subject of data set [1] is HepG2 cells. Briefly: Cellular dose response assay, HepG2. Type of data set: cell-based, human. Put shortly: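 Viability by CellTiter-Glo luminescence after 48 h exposure at 37 °C, 5% CO2. Compounds ran as 12-point 2-fold series, with or without Fer-1, in triplicate at 0.4% final DMSO, on cells plated at 1500/well the day before; SD from technical triplicates shown.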

Data set [2] deals with lipid peroxidation in HT-1080 cells. Briefly: C11-BODIPY lipid peroxidation flow cytometry assay. Type of data set: cell-based, human. Background: A flow cytometer gives signals particle by particle.
For data set [3], the system named is HT-1080 cells. Briefly: Cellular dose response assay, HT-1080 with and without Fer-1. Type of data set: cell-based, human. Put shortly: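 Cells seeded at 1500/well overnight, then treated in triplicate with 12-point 2-fold compound dilutions ± Fer-1 (0.4% DMSO final) for 48 h at 37 °C, 5% CO2. Viability read by CellTiter-Glo luminescence; error bars are SD of three technical replicates from a representative experiment.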

The target in data set [4] is T1, GPX4 (Homo sapiens, UniProt P36969).
T1 sequence (P36969 1-170 isoform P36969-2): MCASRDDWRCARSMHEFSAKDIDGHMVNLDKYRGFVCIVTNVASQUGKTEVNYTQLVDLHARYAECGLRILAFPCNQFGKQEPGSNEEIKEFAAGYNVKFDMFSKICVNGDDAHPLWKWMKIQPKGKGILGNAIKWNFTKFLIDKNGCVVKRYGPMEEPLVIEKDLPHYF
Briefly: GPX4 activity assay in cell lysates (NADPH-coupled). The conditions noted are these: for GPX4% inhibition at 200 (μM) / GPX4% inhibition at 20 (μM) / GPX4% inhibition at 50 (μM) / GPX4% inhibition at 100 (μM): generation 1. It counts as biochemical. More on the design: endogenous in cells; host or cells: A-673 cell lysate. Put shortly:
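Native GPX4 in lysates of A-673 cells grown with 20 nM sodium selenite; lysate preincubated with compound 45 min at 37 °C in pH 8.0 buffer with 3 mM GSH, 0.5 mM NADPH and glutathione reductase. Reaction started with phosphatidylcholine hydroperoxide; NADPH consumption followed at 340 nm over 25 min; triplicates.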

The test system of data set [5] is Huh7 cells. Briefly: Cellular dose response assay, Huh7. It counts as cell-based, human. The source says: HT-1080 (human [Homo sapiens] […] fibrosarcoma), A-673 (human [Homo sapiens] […] Ewing's sarcoma), and SK-HEP-1 (human [Homo sapiens] […] hepatic adenocarcinoma), cells were obtained from ATCC. Huh7 (human [Homo sapiens] […] hepatocellular carcinoma), HLF (human [Homo sapiens] […] hepatocellular carcinoma), HepG2 (human [Homo sapiens] […] hepatocellular carcinoma), cells were obtained from the Cancer Cell Bank at Columbia University Irving Medical Center. HT-1080, A-673, Huh-7, and HLF cells were grown in Dulbecco's Modified Eagle Medium (DMEM) supplemented with 10% heat inactivated fetal bovine serum (HI-FBS), 1% non-essential amino acids, and 1% penicillin streptomycin. HepG2 and SK-HEP-1 cells were grown in Eagle's Minimum Essential Medium (EMEM) supplemented with 10% HI-FBS, and 1% penicillin-streptomycin. All cells were cultured at 37° C. and 5% CO2.
HT-1080, HepG2, Huh7, HLF, and SK-HEP-1 cells were seeded into opaque white 384-well plates at 1500 cells per well then incubated at 37° C. with 5% CO2 overnight. The next day, compounds of interest were dissolved in DMSO and 12-point 2-fold dilution series were prepared with and without Fer-1. Cells were treated in triplicate (final DMSO concentration of 0.4% in all wells, including DMSO-only control wells) and incubated for a further 48 hours at 37° C. and 5% CO2. Cell viability was evaluated using CellTiter-Glo (Promega G7573) and luminescence was recorded on a Victor 5 plate reader. Data were analyzed in GraphPad Prism 9 and error bars represent standard deviation values for three technical replicates in a representative experiment.

A short description of data set [6]: in vitro. The conditions noted are these: mouse, microsomes. Type of data set: in vitro ADME, mouse. The method, then:
(§1) […]. The incubation timepoints measured were 0, 5, 10, 15, 30, and 45 minutes. All samples were prepared in duplicate and analyzed by LC-MS/MS.

The nature of data set [7]: in vitro. It counts as in vitro ADME, human. Particulars: human, microsomes. The method, then:
as §1

Data set [8] concerns DTP cells derived from PC9. Briefly: Drug-tolerant persister cell model, DTP cells. The conditions noted are these: for % Viability Persister: 48 hours; for viability at 10 µM: Homo sapiens.
Setting [9] is: HT-1080 cells, with and without fer-1.
Where [10] appears, read: compounds alone, Table 4, read-out: IC50 (uM) Huh7^a.
Setting [11] is: with fer-1, Table 4, read-out: IC50 (uM) Huh7^b.
Setting [12] is: compounds alone, Table 4, read-out: IC50 (uM) HEPG2^a.
The mark [13] stands for this setting: with fer-1, Table 4, read-out: IC50 (uM) HEPG2^b.
Setting [14] is: compounds alone, Table 4, read-out: IC50 (uM) HT1080^a.
[15] abbreviates: with fer-1, Table 4, read-out: IC50 (uM) HT1080^b.

Turning to `COc1cccc2[nH]c(C(=O)n3ccnc3)cc12` [LOC1886, reference compound], the half-inhibitory concentration (IC50) is 88.6 µM in data set [1] (Homo sapiens, HepG2, compounds alone, read-out: IC50 (μM) HEPG2^a); 29.1 µM in data set [1] (Homo sapiens, HepG2, compounds and fer-1 1.0 μM, read-out: IC50 (μM) HEPG2^b); 163 µM in data set [3] (Homo sapiens, HT-1080, compounds alone, read-out: IC50 (μM) HT1080^a); 109 µM in data set [3] (Homo sapiens, HT-1080, compounds and fer-1 1.0 μM, read-out: IC50 (μM) HT1080^b). Further, the “lipid peroxidation (C11-BODIPY), result in words” value (“lipid peroxidation (C11-BODIPY)” for short) in data set [2] (setting [9]) is “induces lipid peroxidation in cells”. The “ferroptosis induction / potency in HT-1080 cells, result in words” value in data set [3] (RSL3 as control) was “no fer-1 rescue was observed”. Also, the inhibition at 200 µM in data set [4] (200 μM, mean ± s.d., n = 3, read-out: GPX4% inhibition at 200) came to 31.9 ± 6%.
For `CC(C)(COC(=O)CCl)NC(=O)c1cc2ccccc2[nH]1` [QW-147], the concentration for half-maximal inhibition (IC50) in data set [5] (setting [10]) stood at 98.7 µM; in data set [5] (setting [11]) it was 113 µM; in data set [1] (setting [12]), 69 µM; in data set [1] (setting [13]), 104 µM; in data set [3] (setting [14]), 34.8 µM; in data set [3] (setting [15]), 37.2 µM. The GPX4 inhibition result in data set [4] (200 μM) was “complete loss in potency of inhibitory activity”. Moreover, the “GPX4% inhibition at 200 (μM)” value in data set [4] (200 μM, mean ± s.d., n = 3) is given as −3.3 ± 45.3%.
`CC(C)(COC(=O)CCl)NC(=O)c1cc2cc([N+](=O)[O-])ccc2[nH]1` [QW-148]: the IC50 in data set [5] (setting [10]) is 15.8 µM; in data set [5] (setting [11]), 55 µM; in data set [1] (setting [12]), above 400 µM; in data set [1] (setting [13]), above 400 µM; in data set [3] (setting [14]), 37.7 µM; in data set [3] (setting [15]), 95.9 µM. For the same compound, the “GPX4% inhibition at 20 (μM)” value in data set [4] came out at 66.7 ± 1.4%. Moreover, in data set [4] (50 μM), the “GPX4% inhibition at 50 (μM)” value is on record as 79.2 ± 5.8%. Further, the “GPX4% inhibition at 100 (μM)” value in data set [4] was 62.7 ± 10.9%. Further, the “GPX4% inhibition at 200 (μM)” value in data set [4] (200 μM, mean ± s.d., n = 3) came out at 87.3 ± 34.6%.
`COc1ccc2cc(C(=O)NC(C)(C)COC(=O)CCl)[nH]c2c1` [QW-152]: the IC50 stood at 59.6 µM in data set [5] (setting [10]); 110 µM in data set [5] (setting [11]); 81.4 µM in data set [1] (setting [12]); 291 µM in data set [1] (setting [13]); 55.5 µM in data set [3] (setting [14]); 167 µM in data set [3] (setting [15]). Besides, the “Microsome Stability t1/2 (min) mouse” value in data set [6] stood at 0.9 min. For the same compound, the “Microsome Stability t1/2 (min) human” value in data set [7] was 1.5 min. Also, the “GPX4% inhibition at 20 (μM)” value in data set [4] stood at 27.9 ± 5.5%. Further, the GPX4 inhibition entry is listed as “approximately 60%” in data set [4] (50 μM) and “complete inhibition” in data set [4] (200 μM). The “GPX4% inhibition at 50 (μM)” value in data set [4] (50 μM) was 56.0 ± 6.2%. In addition, in data set [4], the “GPX4% inhibition at 100 (μM)” value amounted to 70.5 ± 9.2%. Also, the “GPX4% inhibition at 200 (μM)” value in data set [4] (200 μM, mean ± s.d., n = 3) is listed as 150.4 ± 20.3%.
On to `CC(C)(COC(=O)CCl)NC(=O)c1cc2ccc(Br)cc2[nH]1` [QW-156], for which the IC50 in data set [5] (setting [10]) was 17.8 µM; in data set [5] (setting [11]), 55.4 µM; in data set [1] (setting [12]), 25.4 µM; in data set [1] (setting [13]) it was 51.5 µM; in data set [3] (setting [14]) it was 22.9 µM; in data set [3] (setting [15]), 33.1 µM. Moreover, the “lipid peroxidation (C11-BODIPY)” value in data set [2] (setting [9]) is on record as “induced fer-1 rescuable increases in lipid peroxidation”. In addition, in data set [6], the “Microsome Stability t1/2 (min) mouse” value is above 1000 min. The “selectivity for DTPs vs PC9 parental cells, result in words” value in data set [8] is “no selectivity for DTP cells over PC9 cells at most concentrations tested”. Further, the “% Viability Persister” value in data set [8] (dose 1.0 μM) is on record as 122.00%; in data set [8] (dose 10.0 μM) it was 73.25%; in data set [8] (dose 25.0 μM), 24.50%; in data set [8] (dose 50.0 μM), 2.50%. For the same compound, the “Microsome Stability t1/2 (min) human” value in data set [7] is reported as above 1000 min. Further, the “GPX4% inhibition at 20 (μM)” value in data set [4] is 61.2 ± 0.5%. The GPX4 inhibition result is listed as “complete GPX4 inhibition” in data set [4] (50 μM) and “complete inhibition” in data set [4] (200 μM). Besides, the “GPX4% inhibition at 50 (μM)” value in data set [4] (50 μM) was 98.6 ± 4.1%. For the same compound, the “GPX4% inhibition at 100 (μM)” value in data set [4] worked out at 95.5 ± 6.2%. Besides, the “GPX4% inhibition at 200 (μM)” value in data set [4] (200 μM, mean ± s.d., n = 3) came to 170.3 ± 33.5%.
For `Cn1nc(C(=O)NC(C)(C)COC(=O)CCl)c2ccc(Br)cc21` [QW-314], in data set [5], the “times less potent than RSL3 in cells” value is given as “approximately 10 times”. Moreover, the 50% growth inhibitory concentration (GI50) in data set [5] (Homo sapiens, Huh-7) was around 1 µM. The IC50 in data set [5] (Homo sapiens, Huh-7, read-out: IC50 (uM) Huh7^a) stood at 1.8 µM; in data set [5] (Homo sapiens, Huh-7, read-out: IC50 (uM) Huh7^b), 92.9 µM; in data set [1] (Homo sapiens, HepG2, read-out: IC50 (uM) HEPG2^a), 11.3 µM; in data set [1] (Homo sapiens, HepG2, read-out: IC50 (uM) HEPG2^b) it was 222 µM; in data set [3] (Homo sapiens, HT-1080, read-out: IC50 (uM) HT1080^a) it was 1.9 µM; in data set [3] (Homo sapiens, HT-1080, read-out: IC50 (uM) HT1080^b), 77.4 µM. Also, the IC50 in data set [4] (mean±SD, n=3 (FIG. 84E), read-out: IC50 in the in vitro GPX4 activity assay) amounted to 5.8 µM. For the same compound, the “lipid peroxidation (C11-BODIPY)” value in data set [2] was “increased lipid peroxidation that is rescuable by ferrostatin-1”. Also, the half-life at 1 μM in data set [6] (pH 7.4) is 5.3 min; in data set [7] (pH 7.4), 6 min. Further, the “selectivity for DTPs vs PC9 parental cells, result in words” value in data set [8] is listed as “selective lethality in DTPs vs PC9 parental cells; also recorded: preferential induction of significantly more cell death in the DTP cells compared to the parental cells”. For the same compound, the viability at 10 µM came out at 22% in data set [8] (48 h, read-out: % Viability Persister) and 73% in data set [8] (read-out: % Viability Persister + 2 μM Fer-1). The results for the GPX4 inhibition entry in data set [4] (20 µM) and in data set [4] (200 μM) were “complete inhibition in the assay even at 20 μM” and “complete inhibition”, respectively. Besides, the inhibition at 20 µM in data set [4] (read-out: GPX4% inhibition at 20 (μM)) was determined as 108 ± 5.3%. The inhibition at 200 µM in data set [4] (read-out: GPX4% inhibition at 200 (μM)) was 93.1 ± 6%.
